Measurements from patent publication US20260373036A1, “A PERSONAL CARE COMPOSITION” (Concpco, Inc., d/b/a UNILEVER, priority 2022, published 2026).

Tested on: TXNRD1 (Thioredoxin reductase 1) gene
Test: TXNRD1 (thioredoxin reductase 1) gene expression in normal human epidermal keratinocytes (NHEK) by RT-PCR
Format: cell-based
Settings: 24 hours, normalized to YWHAZ, relative to blank control (1.0)
Description: The normal human epidermal keratinocytes (NHEK, Lot: NHS-2021-006) (Archgene Biotechnology, Shanghai, China) were incubated in medium together with or without actives for 24 hours. After incubation, the total RNA for each NHEK was extracted using Qiagen Mini RNeasy kit (Qiagen, Cat. 74106) according to manufacturer's protocol.
The extracted RNA was quantified using Nanodrop 2000 spectrometer (Thermo Fisher Scientific, Waltham, MA, US) and reverse transcribed to generate the template cDNA using the ABScript III RT Mast Mix (Cat. BK20428, ABclonal) according to manufacturer's protocol. Amplification of the gene encoding the TXNRD1 (Thioredoxin reductase 1) gene was performed with RT-PCR reagent (Universal SYBR Green Fast qPCR Mix kit, Cat.: RK21203, ABclonal) on the ABI Vii 7 Real-Time PCR Systems (Applied Biosystems, Thermo fisher scientific, Carlsbad, CA, USA). The Tyrosine 3-Monooxygenase/Tryptophan 5-Monooxygenase Activation Protein Zeta gene (YWHAZ) was selected as the housekeeping gene and all data on relative expression of the target genes was normalized to YWHAZ.

Molecule	fold induction at 5 µM (Homo sapiens, 5 μM of HR in medium, read-out: Fold change for gene expression TXNRD1)	Fold change for gene expression TXNRD1 (0.05 wt % of LCC in medium)
CCCCCCc1ccc(O)cc1O [HR, 4-hexyl resorcinol]	1	–
Lysine carboxymethyl cysteinate [LCC]	–	1.2
